Measured values reported in the SangsterLogP compilation.

Legend:
[1] = method code SF-AS, from DOI: 10.1016/j.ejmech.2010.07.027, PMID: 20705371
[2] = method code SF-RC, from DOI: 10.1016/j.nucmedbio.2011.12.002, PMID: 22321533
[3] = method code SF-AS, from PMID: 17401091; settings: pH 7.4
[4] = method code SF, from DOI: 10.1021/jm049495j.s001, PMID: 15771458; settings: pH 12.0
[5] = not given; remark: listed apart in the source
[6] = method code SF, from DOI: 10.1016/j.ijpharm.2011.07.043, PMID: 21839822; settings: pH 7.4
[7] = method code SF-FL, from DOI: 10.1248/cpb.27.638, PMID: 554741
[8] = method code SF-AS, from DOI: 10.1016/s0022-3565(25)32601-7, PMID: 7194909
[9] = not given; remark: listed apart in the source
[10] = not given; remark: listed apart in the source
[11] = not given; remark: listed apart in the source
[12] = method code SF, from DOI: 10.1016/j.ejps.2016.06.024, PMID: 27373604; settings: pH 7.4
[13] = not given; remark: listed apart in the source
[14] = method code SF-GLC, from Jha, T.; Debnath, A.; Mazumdar, A.; Sengupta, C.; De, A. (1986). Hansch analysis of antineoplastic agents, 5-N-substituted-2-p-substituted benzenesulfonyl-L-glutamines. Ind. J. Chem., Sect. B, …
[15] = method code SF-HPLC, from Hairsine, P. (1997). Direct measurement of partition coefficient by shake flask technique and gradient elution HPLC. Lab. Practice, 38(11)73-75.
[16] = method code SF-RC, from DOI: 10.1016/s0969-8051(01)00199-8, PMID: 11395310; settings: pH 7.4
[17] = not given; remark: listed apart in the source
[18] = method code SF, from DOI: 10.1016/s0006-3495(89)82875-9, PMID: 2470429; settings: pH 7.3
[19] = method code SF-AS, from Galdino, S.; Pitta, I.; Luc-Duc, C. (1986). 5-Benzylidene pyrrolones, furanones and thiopenones. II. Quantitative structure-antifungal correlation. Farmaco [Sci], 41(1)59-68.
[20] = method code SF, from Tomlin, C. (2000). The Pesticide Manual (12th Edition) British Crop Protection Council, Bracknell.
[21] = method code SF-NMR, from DOI: 10.1016/j.jpba.2012.12.010, PMID: 23298914; settings: pH 7.6
[22] = not given; remark: listed apart in the source
[23] = not given; remark: listed apart in the source
[24] = method code SF-HPLC, from DOI: 10.1023/a:1013643013244, PMID: 11837695; settings: pH 6.4
[25] = method code SF-RC, from DOI: 10.1021/acs.jmedchem.6b00849, PMID: 27690428; settings: pH 7.4
[26] = not given; remark: listed apart in the source
[27] = method code SF-AS, from DOI: 10.1007/bf00500291, PMID: 4270072; settings: pH 7.4
[28] = method code SF, from DOI: 10.1021/jm061062o.s001, PMID: 17326614; settings: pH 7.4
[29] = method code SF-AS, from Thiel, W. (1998). Structure and physicochemical properties of retigabine. Pharmazie, 53(12)865-868.; settings: pH 7.4
[30] = method code SF-FL, from DOI: 10.1002/jps.2600810104, PMID: 1352350
[31] = not given; remark: listed apart in the source
[32] = not given; remark: listed apart in the source
[33] = method code SF-HPLC, from DOI: 10.1023/a:1007514121527, PMID: 10714601; settings: pH 7.4
[34] = method code SF, from DOI: 10.1016/j.ejmech.2012.08.015, PMID: 22960698
[35] = not given; remark: listed apart in the source
[36] = method code SF-AS/IM, from DOI: 10.1002/jps.2600661205, PMID: 925928
[37] = method code SF, from DOI: 10.1016/s0223-5234(03)00044-8, PMID: 12750026; settings: pH 7.4
[38] = method code SF-AS, from DOI: 10.1021/js960093b, PMID: 8897274; settings: pH 7.4
[39] = method code SF-HPLC, from DOI: 10.1016/s0021-9673(99)01336-9, PMID: 10757301
[40] = method code SF-AS, from DOI: 10.1021/jm00254a028, PMID: 4845386
[41] = method code SF-ILT, from DOI: 10.1002/ardp.19763091008, PMID: 1008678
[42] = method code SF-HPLC, from DOI: 10.1021/jm300631e, PMID: 22734650; settings: pH 7.4
[43] = not given; remark: listed apart in the source
[44] = method code SF-AS, from DOI: 10.1081/jlc-100100410; settings: pH 4.0

CC(C)(C)c1ccc(O)c(CN2CCOCC2)c1
logP [1]: 1.96

Cc1cn(C2CC(O)C(CO)O2)c(=O)n(Cc2cn(CCF)nn2)c1=O (stereo not given)
logP [2]: -1.22

O=C(O)Cc1ccc2c(c1)C(=O)c1ccccc1CS2
logP: 2.97

CN(C)c1ncc(C=Cc2nc3ccc(OCCF)cc3o2)s1
logD [3]: 1.75

c1ccc2c(c1)CCn1ccnc1C21CCNCC1
logD [4]: 1.18

CN(C)Cc1ccccc1Sc1ccc(I)cc1CO
logP [5]: 2.67

CCCCCCCCNC(=O)c1ccccc1O
logD [6]: 3.7

c1ccc(Nc2cccc3ccccc23)cc1
logP [7]: 4.2

OC1(c2ccc(Cl)cc2)c2ccccc2C2=NCCN21 (stereo not given)
logP [8]: 1.81

CCOP(=S)(NC(C)C)Oc1ccccc1C(=O)OC(C)C (stereo not given)
logP [9]: 3.7

Cc1ccc2oc(-c3ccccc3C(=O)O)c(Br)c2c1
logP [10]: 5.19

Oc1ccc(C23CC4CC(CC(C4)C2)C3)cc1
logP [11]: 5.46

NC(=O)C1c2ccccc2CCc2ccccc21
logD [12]: 1.67

CCN1C=CC(=C2C(=O)c3ccc(Cl)cc3C2=O)C=C1
logP [13]: 2.76

CCCNC(=O)CCC(NS(=O)(=O)c1ccc(C)cc1)C(=O)O (stereo not given)
logP [14]: 0.13

O=C(CCNNC(=O)c1ccncc1)NCc1ccccc1
logP [15]: 0.83

CCN1CCC[C@H]1CNC(=O)c1c(OC)ccc(I)c1O
logD [16]: 2.85

COc1ccc2c(c1)OCC2NC(=O)CN1CCCC1 (stereo not given)
logP [17]: 1.92

COC(=O)C1=C(C)NC(C)=C([N+](=O)[O-])C1c1ccccc1C(F)(F)F (stereo not given)
logD [18]: 2.46

CCOC(=O)C1=C(C)O/C(=C\c2ccc(OC)cc2)C1=O
logP [19]: 2.96

COCC(=O)N(c1c(C)cccc1C)C(C)C(=O)OC (racemic)
logP [20]: 1.75

COC(=O)C(N)Cc1cc(I)c(Oc2ccc(O)c(I)c2)c(I)c1 (stereo not given)
logD [21]: 2.6

COc1ccc(Sc2ccc(I)cc2N)c(CN(C)C)c1
logP [22]: 3.34

CCc1cccc(C)c1N(C(=O)CCl)C(C)COC (stereo not given)
logP [23]: 3.09

CCCN1C(=O)CCC(N2C(=O)c3ccccc3C2=O)C1=O (stereo not given)
logD [24]: 2.11

N#Cc1ccc(N(Cc2ccc(I)cc2)n2cnnc2)cc1
logD [25]: 2.48

CC(C)(C)C(O)[C@H](Cc1ccc(Cl)cc1)n1cncn1 (stereo in doubt)
logP [26]: 3.26

CN1C(=O)CN=C(C2=CCCCC2)c2cc(Cl)ccc21
logD [27]: 2.76

CS(=O)(=O)CCN(CCBr)c1cc(C(=O)NCC(O)CO)c([N+](=O)[O-])cc1[N+](=O)[O-] (stereo not given)
logD [28]: -0.05

CCOC(=O)Nc1ccc(NCc2ccc(F)cc2)cc1N
logD [29]: 2.17

CN1CCN=C(c2ccccc2)c2cc(Cl)ccc21
logP [30]: 3.3

Cc1nc(N)nc(N)c1C12CC3CC(CC(C3)C1)C2
logP [31]: 2.64

COc1ccc(C(=O)NNC(=O)c2ccc(OC)cc2)cc1
logP [32]: 1.55

COc1cc2oc(=O)cc(CC(NC(C)=O)C(N)=O)c2cc1OC (stereo not given)
logD [33]: -0.13

O=C(CC1OC(=O)c2ccccc21)c1ccc(Cl)c(Cl)c1 (stereo not given)
logP [34]: 4.24

c1cc2ccc1CCc1ccc(cc1)CC2
logP [35]: 4.61

CC1(C)S[C@@H]2[C@H](NC(=O)COc3ccccc3)C(=O)N2[C@H]1C(=O)O
logP [36]: 1.95

CNC(=O)Oc1ccc2c(c1)C1(C)CCN(C)C1N2C (stereo not given)
logD [37]: 0.97

N#CN=C1NC(=O)C(c2ccccc2)(c2ccccc2)N1
logD [38]: 1.16

CO/N=C(\C(=O)N[C@@H]1C(=O)N2C(C(=O)O)=C(COC(N)=O)CS[C@H]12)c1ccco1
logP [39]: -0.17

NC(=O)OC1c2ccccc2C2CCCCC2C1OC(N)=O (stereo not given)
logP [40]: 2.17

CCNC(=O)C1C2C=CC(C2)C1C(=O)N(CC)CC (stereo not given)
logP [41]: 0.99

C=CCC1(c2cccc(C3(C(F)(F)F)N=N3)c2)C(=O)NC(=O)N(C)C1=O (stereo not given)
logD [42]: 3.79

O=C(O)Cc1ccc2c(c1O)C(=O)c1c(O)cccc1C2
logP [43]: 3.1

CC(C)Oc1ccc(C(=O)NS(=O)(=O)c2ccc(N)cc2)cc1
logD [44]: 1.21
